Test results as given in patent US10646466B2, “Uses of gallocatechin” (TCI CO., LTD., priority 2017, dated 2020).

Key:
Type in all cases: cell-based
Conditions in all cases: 0.0625 μg/ml, 24 hours, control set as 1-fold
[1] = system: TPH1 gene; assay: qPCR expression level of TPH1 gene in SHSY5Y cells
Protocol: (§1) SHSYSY cells were seeded in a 6-well plate (1×10^5 cells/well) and then cultured for 24 hours. Thereafter, cells were divided into the control group and experimental group and were separately cultured in the following medium for 24 hours: • 1. Control group: DMEM medium; • 2. Experimental group: a medium the same as that of the control group, but additionally added with 0.0625 μg/ml of the compound of formula (I). Thereafter, cells of the above groups were harvested and subjected to an RNA extraction with an RNA Extract Kit. The RNA thus obtained was then transcribed into cDNA by using a Reverse Transcriptase. Thereafter, the cDNA was subjected to a quantitative polymerase chain reaction (qPCR) by using a Step One Plus system and a KAPA SYBR FAST qPCR kit to determine the expression levels of genes related to melatonin (including TPH1, DDC, AANAT and ASMTL) in the cells of each group. The above experimental steps were repeated three times, and then the results of the three experiments were averaged. Thereafter, the result of the control group was used as a basis (i.e., the gene expression level of the control group was set as 1-fold) to calculate the relative gene expression level of the experimental group.

[2] = system: DDC gene; assay: qPCR expression level of DDC gene in SHSY5Y cells
Protocol: as §1

[3] = system: AANAT gene; assay: qPCR expression level of AANAT gene in SHSY5Y cells
Protocol: as §1

[4] = system: ASMTL gene; assay: qPCR expression level of ASMTL gene in SHSY5Y cells
Protocol: as §1

Oc1cc(O)c2c(c1)O[C@H](c1cc(O)c(O)c(O)c1)[C@@H](O)C2 [compound of formula (I), gallocatechin]
significantly increased: relative expression level of TPH1 gene as compared to the control group [1] | relative expression level of DDC gene as compared to the control group [2] | relative expression level of AANAT gene as compared to the control group [3] | relative expression level of ASMTL gene as compared to the control group [4]
